The results in this text go back to US11992012B2, “Diaminotriazine compounds” (BASF SE, priority 2018, dated 2024).

What all share (assay): greenhouse pre-emergence herbicidal test
What all share (type): in vivo
Conditions in all cases: 250 g/ha, scale 0 to 100

The test system of one assay is Abutilon theophrasti. In a few lines: (§1)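 Compounds suspended or emulsified in water were sprayed onto loamy sand (about 3.0% humus) right after sowing; pots were hooded until rooting. Damage was scored on a 0–100 scale (100 = no emergence or complete aerial destruction, 0 = normal growth) after 2 to 4 weeks.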
The subject of another assay is Echinocloa crus-galli. In a few lines:
(§2)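 Seeds sown in loamy sand (~3.0% humus); compounds suspended or emulsified in water, sprayed directly after sowing, pots covered until rooting. Kept at 10-25° C. or 20-35° C. by species for 2 to 4 weeks. Damage scored visually 0-100 (100 = no emergence or complete aerial destruction).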

Another assay deals with Amaranthus retroflexus. In outline: as §2
The subject of another assay is Setaria faberi. In a few lines:
as §1

Take `COc1ccccc1COc1c(F)ccc(F)c1Nc1nc(N)nc(C(C)(C)F)n1` [Example 173]: the herbicidal activity in the assay with Abutilon theophrasti, in the assay with Echinocloa crus-galli and with Amaranthus retroflexus was 100% in each case.

As to `CC(C)(F)c1nc(N)nc(Nc2c(F)cccc2OCc2cccc(Cl)c2)n1` [Example 47], the herbicidal activity in the assay on Abutilon theophrasti amounted to 100%; with Echinocloa crus-galli, 80%; with Amaranthus retroflexus, 100%.

`CC(C)(Cl)c1nc(N)nc(Nc2c(F)c(F)cc(F)c2OCc2ccccc2)n1` [Example 246]: the herbicidal activity in the assay on Abutilon theophrasti, with Echinocloa crus-galli and with Amaranthus retroflexus was 100% throughout.

In the case of `CC(C)c1ccccc1COc1c(F)cc(F)c(F)c1Nc1nc(N)nc(C(C)(C)F)n1` [Example 208], the herbicidal activity is reported as 90% in the assay on Abutilon theophrasti and 80% with Amaranthus retroflexus.

With `COC(C)(C)c1nc(N)nc(Nc2c(F)c(F)cc(F)c2OCc2ccccc2F)n1` [Example 248], the herbicidal activity in the assay with Abutilon theophrasti, in the assay with Echinocloa crus-galli and in the assay with Amaranthus retroflexus was 100% in each case.

Consider `Nc1nc(Nc2c(F)cccc2OCc2ccccc2)nc(C2(F)CCCCC2)n1` [Example 31], for which the herbicidal activity with Abutilon theophrasti was found to be 85%; in the assay with Echinocloa crus-galli, 100%; in the assay with Amaranthus retroflexus, 75%.

On to `COC(C)c1nc(N)nc(Nc2c(F)c(F)cc(F)c2OCc2ccccc2Cl)n1` (stereo not shown) [Example 243], for which the herbicidal activity with Setaria faberi, with Abutilon theophrasti and with Echinocloa crus-galli was 85% each time.

`CC(C)(F)c1nc(N)nc(Nc2c(F)c(F)cc(F)c2OCc2ccc(Cl)cc2)n1` [Example 207]: the herbicidal activity in the assay on Setaria faberi worked out at 100%; in the assay with Abutilon theophrasti, 90%; with Echinocloa crus-galli it was 100%.

With `CC(C)(F)c1nc(N)nc(Nc2c(F)c(F)cc(Br)c2OCc2ccccc2)n1` [Example 222], the herbicidal activity is recorded as 100% with Setaria faberi, 98% in the assay on Abutilon theophrasti and 100% in the assay with Echinocloa crus-galli.

As to `CC(C)c1nc(N)nc(Nc2c(F)c(F)cc(F)c2OCc2ccccc2)n1` [Example 254], the herbicidal activity in the assay on Setaria faberi, in the assay with Abutilon theophrasti and with Echinocloa crus-galli was 100% in each case.

`Cc1ccc(F)c(Nc2nc(N)nc(C(C)(C)F)n2)c1OCc1ccccc1` [Example 175]: the herbicidal activity is 95% in the assay with Setaria faberi, 85% in the assay on Abutilon theophrasti and 100% in the assay with Echinocloa crus-galli.

Regarding `CC(C)(F)c1nc(N)nc(Nc2c(F)cccc2OC(F)(F)c2cccc(F)c2)n1` [Example 130], the herbicidal activity in the assay with Setaria faberi, in the assay with Abutilon theophrasti and in the assay on Echinocloa crus-galli was 100% throughout.

Consider `CC(C)(F)c1nc(N)nc(Nc2c(F)ccc(Br)c2OCc2ccccc2)n1` [Example 223], for which the herbicidal activity is reported as 100% in the assay with Setaria faberi, 100% in the assay on Abutilon theophrasti and 95% in the assay with Echinocloa crus-galli.

Turning to `CC(C)(F)c1nc(N)nc(Nc2c(F)c(F)cc(F)c2OCc2cccc(Cl)c2)n1` [Example 217], the herbicidal activity with Setaria faberi turned out to be 100%; with Abutilon theophrasti, 98%; in the assay on Echinocloa crus-galli it was 100%.

In the case of `CC(C)(F)c1nc(N)nc(Nc2c(F)cccc2OCc2nc(C3CC3)no2)n1` [Example 42], the herbicidal activity with Abutilon theophrasti is recorded as 80%; in the assay with Amaranthus retroflexus, 100%.

As for `Cc1c(F)cccc1COc1cccc(F)c1Nc1nc(N)nc(C(C)(C)F)n1` [Example 102], the values for the herbicidal activity in the assay with Setaria faberi, in the assay with Abutilon theophrasti and in the assay on Echinocloa crus-galli were 100%, 85% and 100%, respectively.

As to `CC(C)(F)c1nc(N)nc(Nc2c(F)c(F)cc(F)c2OCc2ccccc2Br)n1` [Example 232], the herbicidal activity in the assay on Setaria faberi, in the assay with Abutilon theophrasti and in the assay with Echinocloa crus-galli was 100% in each case.
